Series [1] concerns the target UGT72B1 (Arabidopsis thaliana, UniProt Q9M156, E284K/I310V/T253S). How it is done:
The enzyme was diluted to a final concentration of 0.115 ng/μL using 50 mM Tris HCl (pH 7.5), 1 mM MgCl2 and 2 mM DTT. […] Arbutin formation was quantitated by HPLC analysis as follows: 10 μL of analyte were separated on a Nova-Pak® C18 column (60 Å pore size, […]) using a gradient from 2% acetonitrile, 1.5% phosphoric acid (solvent A) to 48% acetonitrile, 1.5% phosphoric acid (solvent B). The following solvent gradient is applied: 0–5 min 100% solvent A; 5–20 min linear gradient of 0–100% solvent B; 21–25 min 100% solvent A. Arbutin was detected at 221 nm absorbance wavelength and quantitated using calibration curves generated with a commercially available standard of arbutin.
The data was fitted to the Michaelis-Menten equation. […] In this plot, an estimate of the Km is provided as the slope of the line representing the linear regression curve through the points and the Vmax by the intercept of the regression curve with the y axis.
(§1) This turnover number was calculated using a molecular weight of the UGT72B1 enzyme of 53,015.33 Da calculated with the PEPIDESORT software package of the GCG.

Series [2] addresses T1, arbutin synthase (Rauvolfia serpentina, UniProt Q9AR73). Conditions: 50° C., converted from cited Vmax using 51,793.01 Da. How it is done:
as §1

Series [3] deals with T1, arbutin synthase. The note with it: 50° C., 1 mM hydroquinone; cited from earlier work.
Series [4] deals with T2, UGT72B1 (Arabidopsis thaliana, UniProt Q9M156).
T2 construct: host or cells: E. coli (per the cited work)
T2 sequence (Q9M156 1-480): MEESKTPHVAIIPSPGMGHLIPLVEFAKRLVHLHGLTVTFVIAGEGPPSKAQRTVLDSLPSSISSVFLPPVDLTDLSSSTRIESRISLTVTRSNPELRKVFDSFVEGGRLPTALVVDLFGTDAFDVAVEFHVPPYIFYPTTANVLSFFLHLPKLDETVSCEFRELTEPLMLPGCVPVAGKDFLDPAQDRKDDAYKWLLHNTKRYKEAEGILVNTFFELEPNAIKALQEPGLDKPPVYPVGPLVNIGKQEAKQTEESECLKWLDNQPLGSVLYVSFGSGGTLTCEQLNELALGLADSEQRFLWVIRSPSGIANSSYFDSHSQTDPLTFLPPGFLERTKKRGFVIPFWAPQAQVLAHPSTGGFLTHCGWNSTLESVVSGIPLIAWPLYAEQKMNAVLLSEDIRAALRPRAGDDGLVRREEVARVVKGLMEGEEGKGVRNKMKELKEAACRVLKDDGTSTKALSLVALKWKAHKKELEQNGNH
The note with it: highest of the benzoic acid derivatives analyzed; cited from earlier work.

The subject of the next series is Oc1ccc(O)cc1. Description: purified protein, by the assay type. Conditions: pH 7.5; 37.0 °C.
For a further series, the system named is O=C(O)c1ccc(O)cc1. Description: purified protein, by the assay type. Conditions: other: pHBA 0.2 to 400 μM, fitted to Michaelis-Menten equation; 25.0 °C.

With `Oc1ccc(O)cc1` [hydroquinone, 1,4-dihydroxybenzene], the “apparent Km” value on UGT72B1 [1] was roughly 0.3 µM. Besides, at UGT72B1 [1] (Michaelis-Menten plot, FIG. 5), the “hydroquinone concentration giving significant substrate inhibition” value was “greater than 100 μM”. Moreover, the “Vmax with hydroquinone relative to Vmax with benzoic acid substrates” value at UGT72B1 [1] (compared with Lim et al. values) was roughly 68 fold. Further, the “apparent Vmax” value at UGT72B1 [1] (hydroquinone as substrate, 20 mM UDPG, 37° C., Hofstee plot) was roughly 796 pmol/sec/1 g. The “turnover number (Kcat)” value at UGT72B1 [1] (hydroquinone as substrate, 37° C.) amounted to 42 s⁻¹. Moreover, at arbutin synthase [2], the turnover number amounted to 1.4 s⁻¹. Moreover, the Vmax on arbutin synthase [3] was 26.32 pkat/μg.
In the case of `O=C(O)c1cc(O)ccc1O` [2,5-dihydroxybenzoic acid], on UGT72B1 [4], the specific activity was 11.72 pkat/μg protein.
“UGT72B1 (Arabidopsis thaliana; E284K/I310V/T253S)”: the Michaelis constant (Km) in the series on Oc1ccc(O)cc1 is 0.3 µM.
Regarding “pHBA 1-hydroxylase (Lodderomyces parapsilosis CDC317)”, in the series with O=C(O)c1ccc(O)cc1, the Km is 0.31 µM and the Vmax is 6.4 µmol/min/mg.

By Km is commonly meant the concentration of substrate that gives half-maximal velocity.
